In US20240092784A1, “CONDENSED HETEROCYCLIC COMPOUND” (NISSAN CHEMICAL CORPORATION, priority 2020, published 2024):

What follows are molecules tested against human SPR (Homo sapiens (Human), UniProt P35270) (assay: Evaluation Example 2: Measurement of human SPR inhibitory activity (seven concentrations, sepiapterin absorbance at 420 nm)). Conditions: Evaluation Example 2, seven concentrations 0.14 nM to 100 nM, 240 minutes at room temperature, read-out: IC50.
Format: biochemical
How it was run: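 Reactions ran 240 min at room temperature in 100 mM Tris-HCl pH 7.5 with 0.01% BSA. They contained tag-cleaved, E. coli-expressed full-length human SPR (diluted to 150 ng/mL), seven compound concentrations from 0.14 to 100 nM, and sepiapterin/NADPH added as a 120 μM/160 μM solution. Inhibition was calculated from sepiapterin absorbance at 420 nm.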

Sequence of human SPR (P35270 whole entry): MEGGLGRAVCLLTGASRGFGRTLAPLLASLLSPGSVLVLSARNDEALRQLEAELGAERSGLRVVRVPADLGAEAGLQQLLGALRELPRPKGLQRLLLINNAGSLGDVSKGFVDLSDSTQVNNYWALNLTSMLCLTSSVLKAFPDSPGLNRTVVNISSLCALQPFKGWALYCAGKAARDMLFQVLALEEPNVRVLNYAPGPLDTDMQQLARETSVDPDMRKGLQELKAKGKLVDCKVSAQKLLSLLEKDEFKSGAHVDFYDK

Row | Compound | IC50
1 | CO[C@@H]1CCN(C(=O)/C=C/c2c(C)nn3c(O)c(C(=O)NC4CC4)c(=O)n(CC(C)C)c23)C1 [compound 578, (R,E)-N-Cyclopropyl-7-hydroxy-4-isobutyl-3-(3-(3-methoxypyrrolidin-1-yl)-3-oxoprop-1-en-1-yl)-2-methyl-5-oxo-4,5-dihydropyrazolo[1,5-a]pyrimidine-6-carboxamide] | 0.9 nM
2 | Cc1nn2c(O)c(C(=O)NC3CC3)c(=O)n(CC(C)C)c2c1/C=C/C(=O)N1CCC(F)(F)CC1 [compound 579, (E)-N-Cyclopropyl-3-(3-(4,4-difluoropiperidin-1-yl)-3-oxoprop-1-en-1-yl)-7-hydroxy-4-isobutyl-2-methyl-5-oxo-4,5-dihydropyrazolo[1,5-a]pyrimidine-6-carboxamide] | 0.87 nM
3 | Cc1nn2c(O)c(C(=O)NC3CC3)c(=O)n(CC(C)C)c2c1/C=C/C(=O)N1CCC[C@@H]1C [compound 580, (S,E)-N-Cyclopropyl-7-hydroxy-4-isobutyl-2-methyl-3-(3-(2-methylpyrrolidin-1-yl)-3-oxoprop-1-en-1-yl)-5-oxo-4,5-dihydropyrazolo[1,5-a]pyrimidine-6-carboxamide] | 0.96 nM
4 | Cc1nn2c(O)c(C(=O)NC3CC3)c(=O)n(CC(C)C)c2c1/C=C/C(=O)N1CCC[C@H]1C [compound 581, (R,E)-N-Cyclopropyl-7-hydroxy-4-isobutyl-2-methyl-3-(3-(2-methylpyrrolidin-1-yl)-3-oxoprop-1-en-1-yl)-5-oxo-4,5-dihydropyrazolo[1,5-a]pyrimidine-6-carboxamide] | 1.09 nM
5 | Cc1nn2c(O)c(C(=O)NC3CC3)c(=O)n(CC(C)(C)C)c2c1/C=C/C(=O)N1CCOCC1 [compound 582, (E)-N-Cyclopropyl-7-hydroxy-2-methyl-3-(3-morpholino-3-oxoprop-1-en-1-yl)-4-neopentyl-5-oxo-4,5-dihydropyrazolo[1,5-a]pyrimidine-6-carboxamide] | 0.63 nM
6 | Cc1nn2c(O)c(C(=O)NC3CC3)c(=O)n(CC(C)(C)C)c2c1/C=C/C1CCOCC1 [compound 584, (E)-N-Cyclopropyl-7-hydroxy-2-methyl-4-neopentyl-5-oxo-3-(2-(tetrahydro-2H-pyran-4-yl)vinyl)-4,5-dihydropyrazolo[1,5-a]pyrimidine-6-carboxamide] | 1.2 nM
7 | CNc1nn2c(O)c(C(=O)NC3CC3)c(=O)n(CC3(C)CCOCC3)c2c1/C=C/C1CCOCC1 [compound 585, (E)-N-Cyclopropyl-7-hydroxy-2-(methylamino)-4-((4-methyltetrahydro-2H-pyran-4-yl)methyl)-5-oxo-3-(2-(tetrahydro-2H-pyran-4-yl)vinyl)-4,5-dihydropyrazolo[1,5-a]pyrimidine-6-carboxamide] | 1.23 nM
8 | CCc1nn2c(O)c(C(=O)NC3CC3)c(=O)n(CC(C)C)c2c1/C=C/C(=O)N1CCOCC1 [compound 586, (E)-N-Cyclopropyl-2-ethyl-7-hydroxy-4-isobutyl-3-(3-morpholino-3-oxoprop-1-en-1-yl)-5-oxo-4,5-dihydropyrazolo[1,5-a]pyrimidine-6-carboxamide] | 0.99 nM
9 | CC(C)Cn1c(=O)c(C(=O)NC2CC2)c(O)n2ncc(/C=C/C(=O)N3CCC[C@H]3C(=O)N(C)C)c12 [compound 587, (S,E)-N-Cyclopropyl-3-(3-(2-(dimethylcarbamoyl)pyrrolidin-1-yl)-3-oxoprop-1-en-1-yl)-7-hydroxy-4-isobutyl-5-oxo-4,5-dihydropyrazolo[1,5-a]pyrimidine-6-carboxamide] | 1.37 nM
10 | CC(C)Cn1c(=O)c(C(=O)NC2CC2)c(O)n2ncc(/C=C/C(=O)N3CCC[C@@H]3C(C)(C)O)c12 [compound 589, (R,E)-N-Cyclopropyl-7-hydroxy-3-(3-(2-(2-hydroxypropan-2-yl)pyrrolidin-1-yl)-3-oxoprop-1-en-1-yl)-4-isobutyl-5-oxo-4,5-dihydropyrazolo[1,5-a]pyrimidine-6-carboxamide] | 1.34 nM
11 | CC(C)Cn1c(=O)c(C(=O)NC2CC2)c(O)n2ncc(/C=C/C(=O)N3[C@H](C)CC[C@H]3C)c12 [compound 590, N-Cyclopropyl-3-((E)-3-((2R,5R)-2,5-dimethylpyrrolidin-1-yl)-3-oxoprop-1-en-1-yl)-7-hydroxy-4-isobutyl-5-oxo-4,5-dihydropyrazolo[1,5-a]pyrimidine-6-carboxamide] | 1.09 nM
12 | CC(C)Cn1c(=O)c(C(=O)NC2CC2)c(O)n2ncc(/C=C/C(=O)N3[C@@H](C)CC[C@@H]3C)c12 [compound 591, N-Cyclopropyl-3-((E)-3-((2S,5S)-2,5-dimethylpyrrolidin-1-yl)-3-oxoprop-1-en-1-yl)-7-hydroxy-4-isobutyl-5-oxo-4,5-dihydropyrazolo[1,5-a]pyrimidine-6-carboxamide] | 1.29 nM
13 | CC(C)Cn1c(=O)c(C(=O)NC2CC2)c(O)n2ncc(/C=C/C(=O)N3[C@H](C)CC[C@@H]3C)c12 [compound 592, N-Cyclopropyl-3-((E)-3-(cis-2,5-dimethylpyrrolidin-1-yl)-3-oxoprop-1-en-1-yl)-7-hydroxy-4-isobutyl-5-oxo-4,5-dihydropyrazolo[1,5-a]pyrimidine-6-carboxamide] | 1.46 nM
14 | CC(C)Cn1c(=O)c(C(=O)NC2CC2)c(O)n2ncc(/C=C/C(=O)N3CCc4cccnc43)c12 [compound 594, (E)-N-Cyclopropyl-3-(3-(2,3-dihydro-1H-pyrrolo[2,3-b]pyridin-1-yl)-3-oxoprop-1-en-1-yl)-7-hydroxy-4-isobutyl-5-oxo-4,5-dihydropyrazolo[1,5-a]pyrimidine-6-carboxamide] | 2.01 nM
15 | CC(C)Cn1c(=O)c(C(=O)NC2CC2)c(O)n2ncc(/C=C/C(=O)N3[C@H](C)CCC[C@@H]3C)c12 [compound 597, N-Cyclopropyl-3-((E)-3-(cis-2,6-dimethylpiperidin-1-yl)-3-oxoprop-1-en-1-yl)-7-hydroxy-4-isobutyl-5-oxo-4,5-dihydropyrazolo[1,5-a]pyrimidine-6-carboxamide] | 1.62 nM
16 | CC(C)Cn1c(=O)c(C(=O)NC2CC2)c(O)n2ncc(/C=C/C(=O)N3CC[C@H](C(C)(C)O)C3)c12 [compound 598, (S,E)-N-Cyclopropyl-7-hydroxy-3-(3-(3-(2-hydroxypropan-2-yl)pyrrolidin-1-yl)-3-oxoprop-1-en-1-yl)-4-isobutyl-5-oxo-4,5-dihydropyrazolo[1,5-a]pyrimidine-6-carboxamide] | 1.2 nM
17 | CC(C)Cn1c(=O)c(C(=O)NC2CC2)c(O)n2ncc(/C=C/C(=O)N3CCC[C@@H]3C(C)C)c12 [compound 599, (R,E)-N-Cyclopropyl-7-hydroxy-4-isobutyl-3-(3-(2-isopropylpyrrolidin-1-yl)-3-oxoprop-1-en-1-yl)-5-oxo-4,5-dihydropyrazolo[1,5-a]pyrimidine-6-carboxamide] | 1.27 nM
18 | CC(C)Cn1c(=O)c(C(=O)NC2CC2)c(O)n2ncc(/C=C/C(=O)N3CCC[C@H]3C(C)C)c12 [compound 600, (S,E)-N-Cyclopropyl-7-hydroxy-4-isobutyl-3-(3-(2-isopropylpyrrolidin-1-yl)-3-oxoprop-1-en-1-yl)-5-oxo-4,5-dihydropyrazolo[1,5-a]pyrimidine-6-carboxamide] | 1.47 nM
19 | CC(C)Cn1c(=O)c(C(=O)NC2CC2)c(O)n2ncc(/C=C/C(=O)N3CCC[C@@H]3C(F)F)c12 [compound 601, (R,E)-N-Cyclopropyl-3-(3-(2-(difluoromethyl)pyrrolidin-1-yl)-3-oxoprop-1-en-1-yl)-7-hydroxy-4-isobutyl-5-oxo-4,5-dihydropyrazolo[1,5-a]pyrimidine-6-carboxamide] | 1.08 nM
20 | CC(C)Cn1c(=O)c(C(=O)NC2CC2)c(O)n2ncc(/C=C/C(=O)N3CCOC[C@H]3c3ccccc3)c12 [compound 602, (R,E)-N-Cyclopropyl-7-hydroxy-4-isobutyl-5-oxo-3-(3-oxo-3-(3-phenylmorpholino)prop-1-en-1-yl)-4,5-dihydropyrazolo[1,5-a]pyrimidine-6-carboxamide] | 1.14 nM
21 | CC(C)Cn1c(=O)c(C(=O)NC2CC2)c(O)n2ncc(/C=C/C(=O)N3CCC[C@H]3c3cccnc3)c12 [compound 603, (S,E)-N-Cyclopropyl-7-hydroxy-4-isobutyl-5-oxo-3-(3-oxo-3-(2-(pyridin-3-yl)pyrrolidin-1-yl)prop-1-en-1-yl)-4,5-dihydropyrazolo[1,5-a]pyrimidine-6-carboxamide] | 1.1 nM
22 | CC(C)Cn1c(=O)c(C(=O)NC2CC2)c(O)n2ncc(/C=C/C(=O)N(C)Cc3ccn(C)n3)c12 [compound 604, (E)-N-Cyclopropyl-7-hydroxy-4-isobutyl-3-(3-(methyl((1-methyl-1H-pyrazol-3-yl)methyl)amino)-3-oxoprop-1-en-1-yl)-5-oxo-4,5-dihydropyrazolo[1,5-a]pyrimidine-6-carboxamide] | 0.92 nM
23 | CC[C@H]1CCCN1C(=O)/C=C/c1cnn2c(O)c(C(=O)NC3CC3)c(=O)n(CC(C)C)c12 [compound 605, (S,E)-N-Cyclopropyl-3-(3-(2-ethylpyrrolidin-1-yl)-3-oxoprop-1-en-1-yl)-7-hydroxy-4-isobutyl-5-oxo-4,5-dihydropyrazolo[1,5-a]pyrimidine-6-carboxamide] | 1.2 nM
24 | CC(C)Cn1c(=O)c(C(=O)NC2CC2)c(O)n2ncc(/C=C/C(=O)N3CCOC[C@@H]3c3ccccc3)c12 [compound 606, (S,E)-N-Cyclopropyl-7-hydroxy-4-isobutyl-5-oxo-3-(3-oxo-3-(3-phenylmorpholino)prop-1-en-1-yl)-4,5-dihydropyrazolo[1,5-a]pyrimidine-6-carboxamide] | 1.32 nM
25 | CC(C)Cn1c(=O)c(C(=O)NC2CC2)c(O)n2ncc(/C=C/C(=O)N3CCC[C@@H]3c3ccccc3)c12 [compound 607, (R,E)-N-Cyclopropyl-7-hydroxy-4-isobutyl-5-oxo-3-(3-oxo-3-(2-phenylpyrrolidin-1-yl)prop-1-en-1-yl)-4,5-dihydropyrazolo[1,5-a]pyrimidine-6-carboxamide] | 1.67 nM
